According to patent publication US20230152324A1, “TUMOR-INTRINSIC NLRP3 INFLAMMASOME SIGNALING PATHWAY AS A GENETIC AND FUNCTIONAL BIOMARKER FOR IMMUNOTHERAPY RESPONSE” (Duke University, priority 2021, published 2023):

Assays:
[1] = test system: BRAF^V600EPTEN^−/− melanoma-bearing NLRP3^−/− mice; experiment: Anti-PD-1 alone or with MCC950 in BRAFV600EPTEN−/− melanoma-bearing NLRP3−/− mice; type: in vivo, mouse
[2] = test system: autochthonous BRAF^V600EPTEN^−/− melanoma model; experiment: Autochthonous (transgenic) BRAFV600EPTEN−/− melanoma model treated with anti-PD-1 ± MCC950 or anti-HSP70 antibody; type: in vivo, mouse
From the text: Prior studies have described disease hyper-progression (HPD) occurring in response to anti-PD-1 immunotherapy, a phenomenon estimated by some authors to develop in ˜10% of all solid tumors (5). In HPD, tumor burden can dramatically increase in response to exposure to anti-PD-1 immunotherapy. Given our prior data describing a role for the tumor-intrinsic NLRP3-HSP70 signaling axis as an important driver of PMN-MDSC accumulation in distant lung tissues in response to anti-PD-1 immunotherapy, we hypothesized that this same tumor-intrinsic signaling pathway can establish an immunologic environment capable of facilitating HPD. […]
B6.Cg-Braf^tm1Mmcm Pten^tm1Hwu Tg(Tyr-cre/ERT2 H-2^b)13Bos/BosJ transgenic mice were subdermally injected with 4-Hydroxytamoxifen (4-HT) (Sigma, H6278-50MG CCF, 38.75 μg/mouse) to induce primary melanoma development at the base of the tail. […] Primary tumor volumes were monitored by orthogonal caliper measurements every 3 days. Tumor volume was calculated according to the formula: cm^3=[(length, cm)×(width, cm)^2]/2.
Small representative tissue specimens were harvested from tumors and lungs and stored in RNAlater at −80° C. […] Total RNA was isolated by RNeasy Plus Mini Kit (Qiagen, 74134) and RNA was quantified by NanoDrop. […] All data were normalized to Actb expression and relative gene expression was quantitated based on the 2ΔΔCt method. […]

non-tumor-bearing mice = experiment: Recombinant HSP70 i.p. delivery into non-tumor-bearing mice (lung Western blot, flow cytometry); type: in vivo, mouse; conditions: rHSP70 i.p. vs normal saline
From the text: (§1) Indeed, while we were able to detect soluble HSP70 as a secretion product of human melanoma cell lines, we were not able to detect the production of active IL-1β (FIGS. 12B and C). […] We have previously shown that the tumor-intrinsic NLRP3 inflammasome drives PMN-MDSC recruitment via an autocrine signaling pathway dependent on soluble HSP70 (19). […] To determine whether HSP70 could play the role of a soluble mediator in the induction of CXCR2-dependent chemokines in the distant lung, we delivered recombinant HSP70 (rHSP70) into non-tumor-bearing mice by intra-peritoneal (i.p.) injection and measured CXCL5 expression by whole lung tissue Western blot analysis as well as PMN-MDSC accumulation in the lung by flow cytometry. […] Based on these cumulative findings, we hypothesized that tumor-derived HSP70 signals through TLR4 to promote PMN-MDSC trafficking to these distant tissues. […]
Cells (1-2×10^6) were diluted in 150 μl flow buffer per well of V bottom culture plates, incubated with Live/Dead Stain (Sigma) on ice for 20 mins, washed twice, and incubated with Fc Block (anti-CD16/CD32, 2 ug/mL) before staining with appropriate conjugated antibodies. Cells were washed, resuspended in 2% paraformaldehyde for 15 mins at 4° C., and analyzed using a BD FACSCanto flow cytometry system. […]

[3] = test system: CD45^−EpCAM^+ lung epithelial cells of TLR4^f/f and SPC-TLR4^−/− mice; experiment: rHSP70 i.p. in TLR4f/f and SPC-TLR4−/− transgenic mice, qrt-PCR of sorted lung epithelial cells; type: in vivo, mouse; conditions: rHSP70 i.p. vs saline
From the text: as §1
Small representative tissue specimens were harvested from tumors and lungs and stored in RNAlater at −80° C. […] Total RNA was isolated by RNeasy Plus Mini Kit (Qiagen, 74134) and RNA was quantified by NanoDrop. […]

[4] = test system: MLE12 lung epithelial cells; experiment: MLE12 lung epithelial cell line Western blot after rHSP70 ± TLR4 inhibitor or recombinant Wnt5a; type: cell-based, murine; conditions: for G-CSF expression: in vitro lung epithelial cells

Row | Molecule | anti-PD-1-induced accumulation of PMN-MDSCs into lung tissues ([1]; MCC950 in combination with anti-PD-1, lung tissue and BALF) | upregulation of Wnt5a expression in lung tissues ([1]; MCC950 with anti-PD-1, Western blot) | metastatic progression to the lung ([2]; MCC950 with anti-PD-1, S100β IHC and TRP2 qrt-PCR) | PMN-MDSC populations in the lung ([2]; MCC950 with anti-PD-1 vs anti-PD-1) | CXCL5 expression in whole lung tissue (non-tumor-bearing mice; Western blot) | PMN-MDSC accumulation in the lung (non-tumor-bearing mice; flow cytometry) | Wnt5a and Cxcl5 expression in lung epithelial cells [3] | Wnt5a expression ([4]; MLE12 cells, rHSP70 ± TLR4 inhibitor) | G-CSF expression [4]
1 | CC(C)(O)c1coc(S(=O)(=O)NC(=O)Nc2c3c(cc4c2CCC4)CCC3)c1 [MCC950] | largely eliminated | suppress the upregulation of Wnt5a expression in lung tissues | inhibiting metastatic progression | suppress PMN-MDSC populations in the lung | – | – | – | – | –
2 | rHSP70: recombinant HSP70 delivered by intra-peritoneal injection or added to cells | – | – | – | – | induce CXCL5 expression | promote the accumulation of PMN-MDSCs in lung tissues | upregulated only in lung epithelial cells expressing TLR4 | induce Wnt5a expression in a TLR4-dependent manner | induce modest G-CSF upregulation
3 | Wnt5a: recombinant Wnt5a (R&D Systems/Bio-techne, 645-WN-010) used to treat cell lines (protein, UniProt P22725 62-380, looked up) Protein Wnt-5a: IIGAQPLCSQLAGLSQGQKKLCHLYQDHMQYIGEGAKTGIKECQYQFRHRRWNCSTVDNTSVFGRVMQIGSRETAFTYAVSAAGVVNAMSRACREGELSTCGCSRAARPKDLPRDWLWGGCGDNIDYGYRFAKEFVDARERERIHAKGSYESARILMNLHNNEAGRRTVYNLADVACKCHGVSGSCSLKTCWLQLADFRKVGDALKEKYDSAAAMRLNSRGKLVQVNSRFNSPTTQDLVYIDPSPDYCVRNESTGSLGTQGRLCNKTSEGMDGCELMCCGRGYDQFKTVQTERCHCKFHWCCYVKCKKCTEIVDQFVCK | – | – | – | – | – | – | – | – | more immediate driver of G-CSF
